Reference: publication PMC5666424, “Marine-Derived 2-Aminoimidazolone Alkaloids. Leucettamine B-Related Polyandrocarpamines Inhibit Mammalian and Protozoan DYRK & CLK Kinases” (Marine Drugs, 2017)

How the values were obtained:
Experiment in all cases: KinomeScan
Assay type in all cases: binding
Conditions in all cases: 1 μM
DMPK2 = biological target: T1, DMPK2 (Homo sapiens, UniProt Q6DT37)
T1 construct: purchased DiscoverX (KINOMEscan)

[1] = biological target: T2, ABL1(M351T)-phosphorylated (Homo sapiens, UniProt P00519, M351T)
T2 construct: purchased DiscoverX (KINOMEscan)

TESK1 = biological target: T3, TESK1 (Homo sapiens, UniProt Q15569)
T3 construct: purchased DiscoverX (KINOMEscan)

CTK = biological target: T4, CTK (Homo sapiens, UniProt P42679)
T4 construct: purchased DiscoverX (KINOMEscan)

MYLK2 = biological target: T5, MYLK2 (Homo sapiens, UniProt Q9H1R3)
T5 construct: purchased DiscoverX (KINOMEscan)

[2] = biological target: T6, EGFR(L747-E749del, A750P) (Homo sapiens, UniProt P00533, A750P/DEL747-749)
T6 construct: purchased DiscoverX (KINOMEscan)

BTK = biological target: T7, BTK (Homo sapiens, UniProt Q06187)
T7 construct: purchased DiscoverX (KINOMEscan)

CSNK1G3 = biological target: T8, CSNK1G3 (Homo sapiens, UniProt Q9Y6M4)
T8 construct: purchased DiscoverX (KINOMEscan)

BRSK2 = biological target: T9, BRSK2 (Homo sapiens, UniProt Q8IWQ3)
T9 construct: purchased DiscoverX (KINOMEscan)

LATS1 = biological target: T10, LATS1 (Homo sapiens, UniProt O95835)
T10 construct: purchased DiscoverX (KINOMEscan)

CAMK2G = biological target: T11, CAMK2G (Homo sapiens, UniProt Q13555)
T11 construct: purchased DiscoverX (KINOMEscan)

ACVR1 = biological target: T12, ACVR1 (Homo sapiens, UniProt Q04771)
T12 construct: purchased DiscoverX (KINOMEscan)

VRK2 = biological target: T13, VRK2 (Homo sapiens, UniProt Q86Y07)
T13 construct: purchased DiscoverX (KINOMEscan)

CIT = biological target: T14, CIT (Homo sapiens, UniProt O14578)
T14 construct: purchased DiscoverX (KINOMEscan)

[3] = biological target: T15, TYK2(JH1domain-catalytic) (Homo sapiens, UniProt P29597)
T15 construct: TYK2(JH1domain-catalytic); purchased DiscoverX (KINOMEscan)

TRKC = biological target: T16, TRKC (Homo sapiens, UniProt Q16288)
T16 construct: purchased DiscoverX (KINOMEscan)

NLK = biological target: T17, NLK (Homo sapiens, UniProt Q9UBE8)
T17 construct: purchased DiscoverX (KINOMEscan)

KIT(V559D,V654A) = biological target: T18, KIT(V559D,V654A) (Homo sapiens, UniProt P10721, V559D/V654A)
T18 construct: purchased DiscoverX (KINOMEscan)

SRC = biological target: T19, SRC (Homo sapiens, UniProt P12931)
T19 construct: purchased DiscoverX (KINOMEscan)

CDK9 = biological target: T20, CDK9 (Homo sapiens, UniProt P50750)
T20 construct: purchased DiscoverX (KINOMEscan)

HPK1 = biological target: T21, HPK1 (Homo sapiens, UniProt Q92918)
T21 construct: purchased DiscoverX (KINOMEscan)

TNK1 = biological target: T22, TNK1 (Homo sapiens, UniProt Q13470)
T22 construct: purchased DiscoverX (KINOMEscan)

BRSK1 = biological target: T23, BRSK1 (Homo sapiens, UniProt Q8TDC3)
T23 construct: purchased DiscoverX (KINOMEscan)

CAMK2A = biological target: T24, CAMK2A (Homo sapiens, UniProt Q9UQM7)
T24 construct: purchased DiscoverX (KINOMEscan)

KIT(D816H) = biological target: T25, KIT(D816H) (Homo sapiens, UniProt P10721, D816H)
T25 construct: purchased DiscoverX (KINOMEscan)

AKT1 = biological target: T26, AKT1 (Homo sapiens, UniProt P31749)
T26 construct: purchased DiscoverX (KINOMEscan)

MKK7 = biological target: T27, MKK7 (Homo sapiens, UniProt O14733)
T27 construct: purchased DiscoverX (KINOMEscan)

FGFR2 = biological target: T28, FGFR2 (Homo sapiens, UniProt P21802)
T28 construct: purchased DiscoverX (KINOMEscan)

TXK = biological target: T29, TXK (Homo sapiens, UniProt P42681)
T29 construct: purchased DiscoverX (KINOMEscan)

NEK2 = biological target: T30, NEK2 (Homo sapiens, UniProt P51955)
T30 construct: purchased DiscoverX (KINOMEscan)

SGK3 = biological target: T31, SGK3 (Homo sapiens, UniProt Q96BR1)
T31 construct: purchased DiscoverX (KINOMEscan)

TAK1 = biological target: T32, TAK1 (Homo sapiens, UniProt O43318)
T32 construct: purchased DiscoverX (KINOMEscan)

HIPK3 = biological target: T33, HIPK3 (Homo sapiens, UniProt Q9H422)
T33 construct: purchased DiscoverX (KINOMEscan)

ERK5 = biological target: T34, ERK5 (Homo sapiens, UniProt Q13164)
T34 construct: purchased DiscoverX (KINOMEscan)

FGFR4 = biological target: T35, FGFR4 (Homo sapiens, UniProt P22455)
T35 construct: purchased DiscoverX (KINOMEscan)

FLT3 = biological target: T36, FLT3 (Homo sapiens, UniProt P36888)
T36 construct: purchased DiscoverX (KINOMEscan)

IRAK4 = biological target: T37, IRAK4 (Homo sapiens, UniProt Q9NWZ3)
T37 construct: purchased DiscoverX (KINOMEscan)

T29 sequence (P42681 whole entry): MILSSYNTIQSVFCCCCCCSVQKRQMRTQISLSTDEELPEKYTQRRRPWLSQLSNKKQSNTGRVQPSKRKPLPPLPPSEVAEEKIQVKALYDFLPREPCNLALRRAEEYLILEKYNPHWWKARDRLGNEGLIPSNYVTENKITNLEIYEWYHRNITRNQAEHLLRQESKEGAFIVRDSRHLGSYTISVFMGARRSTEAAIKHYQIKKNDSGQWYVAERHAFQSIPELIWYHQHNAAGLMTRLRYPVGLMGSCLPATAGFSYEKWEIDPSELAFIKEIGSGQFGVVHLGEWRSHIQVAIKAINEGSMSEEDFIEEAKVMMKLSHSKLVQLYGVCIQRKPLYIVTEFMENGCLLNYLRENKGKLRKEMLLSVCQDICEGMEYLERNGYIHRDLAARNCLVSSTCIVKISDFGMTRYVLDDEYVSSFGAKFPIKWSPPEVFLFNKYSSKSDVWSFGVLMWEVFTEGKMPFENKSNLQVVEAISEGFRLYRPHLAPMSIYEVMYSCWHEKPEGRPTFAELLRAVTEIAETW
T15 sequence (P29597 871-1187 limits assumed): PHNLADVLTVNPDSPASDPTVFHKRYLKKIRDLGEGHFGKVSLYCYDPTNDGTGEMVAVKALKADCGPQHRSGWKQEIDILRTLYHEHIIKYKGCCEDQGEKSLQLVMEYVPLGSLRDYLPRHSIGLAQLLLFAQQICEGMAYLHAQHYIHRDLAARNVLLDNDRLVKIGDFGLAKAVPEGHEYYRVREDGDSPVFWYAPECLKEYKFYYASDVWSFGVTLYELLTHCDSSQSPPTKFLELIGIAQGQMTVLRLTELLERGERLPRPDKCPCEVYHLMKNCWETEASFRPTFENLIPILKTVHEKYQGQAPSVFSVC
T11 sequence (Q13555 whole entry): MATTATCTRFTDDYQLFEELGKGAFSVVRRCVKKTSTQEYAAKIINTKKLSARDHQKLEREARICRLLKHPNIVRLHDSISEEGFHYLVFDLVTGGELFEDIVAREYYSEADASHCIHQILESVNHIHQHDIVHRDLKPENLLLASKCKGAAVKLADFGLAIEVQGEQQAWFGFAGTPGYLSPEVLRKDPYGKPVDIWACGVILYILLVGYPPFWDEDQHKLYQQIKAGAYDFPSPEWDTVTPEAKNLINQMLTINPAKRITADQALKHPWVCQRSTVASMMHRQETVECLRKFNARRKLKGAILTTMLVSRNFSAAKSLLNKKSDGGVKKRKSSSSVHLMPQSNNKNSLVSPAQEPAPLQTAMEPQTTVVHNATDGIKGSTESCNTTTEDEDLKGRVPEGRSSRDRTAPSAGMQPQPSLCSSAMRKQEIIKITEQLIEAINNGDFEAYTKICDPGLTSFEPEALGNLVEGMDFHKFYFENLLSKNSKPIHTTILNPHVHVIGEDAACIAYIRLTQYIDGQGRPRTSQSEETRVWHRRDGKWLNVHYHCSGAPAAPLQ
T1 sequence (Q6DT37 whole entry): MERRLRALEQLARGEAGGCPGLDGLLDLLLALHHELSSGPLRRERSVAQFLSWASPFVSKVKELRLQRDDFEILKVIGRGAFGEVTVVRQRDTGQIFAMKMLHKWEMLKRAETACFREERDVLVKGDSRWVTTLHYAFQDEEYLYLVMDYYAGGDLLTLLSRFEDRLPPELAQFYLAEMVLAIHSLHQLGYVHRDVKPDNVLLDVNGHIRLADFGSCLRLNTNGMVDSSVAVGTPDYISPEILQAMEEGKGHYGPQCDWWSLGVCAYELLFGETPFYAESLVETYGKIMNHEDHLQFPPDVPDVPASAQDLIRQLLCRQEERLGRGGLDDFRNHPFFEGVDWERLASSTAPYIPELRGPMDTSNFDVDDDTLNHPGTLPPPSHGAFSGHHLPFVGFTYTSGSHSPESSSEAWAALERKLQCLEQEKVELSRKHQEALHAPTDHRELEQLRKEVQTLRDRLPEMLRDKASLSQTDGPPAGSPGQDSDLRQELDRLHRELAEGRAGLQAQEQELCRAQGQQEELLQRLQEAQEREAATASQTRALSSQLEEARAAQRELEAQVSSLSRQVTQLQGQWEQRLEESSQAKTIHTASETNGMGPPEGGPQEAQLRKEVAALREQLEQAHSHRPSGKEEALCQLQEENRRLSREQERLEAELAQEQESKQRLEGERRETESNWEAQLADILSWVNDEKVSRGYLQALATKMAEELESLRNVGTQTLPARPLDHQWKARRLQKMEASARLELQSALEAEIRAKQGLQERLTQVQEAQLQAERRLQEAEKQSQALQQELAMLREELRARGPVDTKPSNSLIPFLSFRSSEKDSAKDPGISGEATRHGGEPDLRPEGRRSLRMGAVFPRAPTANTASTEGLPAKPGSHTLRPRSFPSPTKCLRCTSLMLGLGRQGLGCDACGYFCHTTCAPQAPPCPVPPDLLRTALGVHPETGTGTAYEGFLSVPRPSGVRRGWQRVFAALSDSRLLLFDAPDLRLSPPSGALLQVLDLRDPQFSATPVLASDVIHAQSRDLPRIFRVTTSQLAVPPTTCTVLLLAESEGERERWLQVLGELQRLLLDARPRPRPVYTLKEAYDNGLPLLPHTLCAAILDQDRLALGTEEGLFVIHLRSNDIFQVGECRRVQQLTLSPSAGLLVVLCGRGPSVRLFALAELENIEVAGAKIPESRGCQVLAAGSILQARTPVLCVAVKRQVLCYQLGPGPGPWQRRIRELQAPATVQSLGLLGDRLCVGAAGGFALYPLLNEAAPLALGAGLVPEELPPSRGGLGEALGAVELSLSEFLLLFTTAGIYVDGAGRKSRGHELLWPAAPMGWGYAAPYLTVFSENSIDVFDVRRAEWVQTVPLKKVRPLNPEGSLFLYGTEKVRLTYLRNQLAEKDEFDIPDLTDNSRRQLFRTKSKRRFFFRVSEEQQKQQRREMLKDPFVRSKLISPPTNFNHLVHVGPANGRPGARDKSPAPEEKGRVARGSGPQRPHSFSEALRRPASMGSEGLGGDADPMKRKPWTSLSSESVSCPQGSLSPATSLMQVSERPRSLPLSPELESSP
T13 sequence (Q86Y07 whole entry): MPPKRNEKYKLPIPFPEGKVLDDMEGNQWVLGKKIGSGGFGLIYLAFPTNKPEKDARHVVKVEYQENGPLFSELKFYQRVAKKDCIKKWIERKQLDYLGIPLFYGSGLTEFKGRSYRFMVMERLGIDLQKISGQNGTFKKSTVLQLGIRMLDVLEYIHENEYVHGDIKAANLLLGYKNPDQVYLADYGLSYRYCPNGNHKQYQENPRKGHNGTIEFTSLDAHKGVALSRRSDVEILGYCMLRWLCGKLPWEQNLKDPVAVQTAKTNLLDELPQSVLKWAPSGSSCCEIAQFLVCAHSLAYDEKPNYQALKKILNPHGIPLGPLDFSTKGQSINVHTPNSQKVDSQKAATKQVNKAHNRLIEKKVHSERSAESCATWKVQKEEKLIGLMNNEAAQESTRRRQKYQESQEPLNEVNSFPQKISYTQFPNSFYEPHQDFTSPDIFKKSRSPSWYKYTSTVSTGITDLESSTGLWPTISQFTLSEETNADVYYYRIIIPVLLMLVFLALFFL
T33 sequence (Q9H422 whole entry): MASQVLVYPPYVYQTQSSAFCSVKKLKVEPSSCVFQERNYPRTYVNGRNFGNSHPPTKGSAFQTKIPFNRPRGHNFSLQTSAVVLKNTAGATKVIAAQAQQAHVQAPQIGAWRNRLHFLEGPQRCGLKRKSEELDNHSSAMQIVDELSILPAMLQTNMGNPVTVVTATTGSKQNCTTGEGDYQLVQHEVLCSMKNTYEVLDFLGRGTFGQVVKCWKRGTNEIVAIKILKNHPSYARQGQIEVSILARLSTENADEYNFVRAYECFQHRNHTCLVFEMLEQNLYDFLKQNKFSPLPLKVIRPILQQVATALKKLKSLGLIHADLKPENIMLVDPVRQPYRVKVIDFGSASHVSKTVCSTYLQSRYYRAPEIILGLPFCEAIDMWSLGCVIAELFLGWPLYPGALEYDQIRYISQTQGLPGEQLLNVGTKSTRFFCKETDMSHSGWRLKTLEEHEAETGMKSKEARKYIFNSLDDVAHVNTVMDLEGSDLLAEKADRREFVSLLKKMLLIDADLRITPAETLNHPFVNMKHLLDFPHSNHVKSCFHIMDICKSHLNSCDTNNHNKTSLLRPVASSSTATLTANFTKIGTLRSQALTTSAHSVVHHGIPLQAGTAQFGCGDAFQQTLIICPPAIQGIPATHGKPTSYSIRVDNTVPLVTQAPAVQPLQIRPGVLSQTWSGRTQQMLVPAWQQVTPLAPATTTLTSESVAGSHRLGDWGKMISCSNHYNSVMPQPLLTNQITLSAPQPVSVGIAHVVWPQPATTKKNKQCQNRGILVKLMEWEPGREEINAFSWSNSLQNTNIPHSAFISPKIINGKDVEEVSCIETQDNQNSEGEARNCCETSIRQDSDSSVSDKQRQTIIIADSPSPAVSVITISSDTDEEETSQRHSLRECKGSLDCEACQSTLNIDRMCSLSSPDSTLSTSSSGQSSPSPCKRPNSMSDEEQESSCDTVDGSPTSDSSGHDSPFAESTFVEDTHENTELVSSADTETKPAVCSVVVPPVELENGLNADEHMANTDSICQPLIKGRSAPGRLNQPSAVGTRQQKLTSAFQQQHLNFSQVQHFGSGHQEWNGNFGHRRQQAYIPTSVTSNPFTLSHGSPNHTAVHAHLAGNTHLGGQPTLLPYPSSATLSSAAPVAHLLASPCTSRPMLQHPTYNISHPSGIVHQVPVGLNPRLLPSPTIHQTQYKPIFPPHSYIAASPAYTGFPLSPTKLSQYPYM
T6 sequence (P00533 with tags, fused parts or gaps DEL747-749/A750P limits assumed): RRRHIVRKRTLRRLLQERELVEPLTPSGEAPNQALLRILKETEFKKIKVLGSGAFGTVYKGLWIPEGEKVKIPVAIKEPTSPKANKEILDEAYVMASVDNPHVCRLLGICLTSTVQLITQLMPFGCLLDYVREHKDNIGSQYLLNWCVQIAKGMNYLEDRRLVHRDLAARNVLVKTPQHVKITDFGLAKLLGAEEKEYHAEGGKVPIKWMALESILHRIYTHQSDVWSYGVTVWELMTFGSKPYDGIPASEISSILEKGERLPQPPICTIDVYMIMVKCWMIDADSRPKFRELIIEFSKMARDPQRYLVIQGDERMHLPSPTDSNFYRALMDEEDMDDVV

With `COc1cc(/C=C2\N=C(N)NC2=O)ccc1O` [Polyandrocarpamine A] as the compound, how does the Score (DMPK2) read?
Its Score is 99.

What about the Score [1] of the same compound?
Its Score is 100.

And the Score (TESK1)?
The Score was 100.

And the Score (CTK)?
Its Score is 100.

And the Score (MYLK2)?
The Score was 95.

What about the Score [2] of the same compound?
Its Score is 100.

And the Score (BTK)?
Its Score is 100.

What about the Score (CSNK1G3) of the same compound?
The Score was 84.

What about the Score (BRSK2) of the same compound?
Its Score is 100.

And the Score (LATS1)?
Its Score is 100.

And the Score (CAMK2G)?
The Score was 99.

And the Score (ACVR1)?
Its Score is 100.

What about the Score (VRK2) of the same compound?
The Score was 100.

What about the Score (CIT) of the same compound?
Its Score is 100.

What about the Score [3] of the same compound?
The Score was 100.

What about the Score (TRKC) of the same compound?
Its Score is 82.

And the Score (NLK)?
The Score was 100.

And the Score (KIT(V559D,V654A))?
Its Score is 100.

What about the Score (SRC) of the same compound?
The Score was 100.

What about the Score (CDK9) of the same compound?
The Score was 88.

What about the Score (HPK1) of the same compound?
Its Score is 100.

And the Score (TNK1)?
The Score was 100.

What about the Score (BRSK1) of the same compound?
Its Score is 100.

What about the Score (CAMK2A) of the same compound?
The Score was 98.

And the Score (KIT(D816H))?
The Score was 100.

And the Score (AKT1)?
Its Score is 100.

What about the Score (MKK7) of the same compound?
Its Score is 89.

What about the Score (FGFR2) of the same compound?
The Score was 100.

What about the Score (TXK) of the same compound?
Its Score is 100.

And the Score (NEK2)?
The Score was 100.

And the Score (SGK3)?
The Score was 100.

And the Score (TAK1)?
Its Score is 100.

What about the Score (HIPK3) of the same compound?
The Score was 19.

And the Score (ERK5)?
Its Score is 100.

And the Score (FGFR4)?
The Score was 98.

And the Score (FLT3)?
Its Score is 100.

What about the Score (IRAK4) of the same compound?
The Score was 46.
